Reference: the supplement of paper PMC10307832

Key:
Assay in all cases: relative viability (nuclei count vs DMSO), 5 days (fraction); higher = more cells survive
R406 + Luminespib = compound: COc1cc(Nc2ncc(F)c(Nc3ccc4c(n3)NC(=O)C(C)(C)O4)n2)cc(OC)c1OC [R406] + CCNC(=O)c1noc(-c2cc(C(C)C)c(O)cc2O)c1-c1ccc(CN2CCOCC2)cc1 [Luminespib] (partner 0.01 µM)
How it was run: (§1)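 A single step with final 0.05% Triton X-100, 1% formaldehyde and 1 ug/ml Hoechst fixed the cells and stained nuclei 5 days after treatment. Lung cancer cell lines in 1536-well plates had been treated by pin tool the day after seeding with one drug alone or a fixed anchor-drug dose plus five library-drug doses (not always all listed) in √10 steps, and nuclei were counted on 4× images. Relative viability is the ratio of nuclei in treated wells to nuclei in vehicle wells, taken as the median of duplicate plates.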

R406 + Olaparib = compound: COc1cc(Nc2ncc(F)c(Nc3ccc4c(n3)NC(=O)C(C)(C)O4)n2)cc(OC)c1OC [R406] + O=C(c1cc(Cc2n[nH]c(=O)c3ccccc23)ccc1F)N1CCN(C(=O)C2CC2)CC1 [Olaparib] (partner 8 µM)
How it was run: as §1

Daporinad + Pictilisib = compound: O=C(/C=C/c1cccnc1)NCCCCC1CCN(C(=O)c2ccccc2)CC1 [Daporinad] + CS(=O)(=O)N1CCN(Cc2cc3nc(-c4cccc5[nH]ncc45)nc(N4CCOCC4)c3s2)CC1 [Pictilisib] (partner 1 µM)
How it was run: as §1

Daporinad + AZD7762 = compound: O=C(/C=C/c1cccnc1)NCCCCC1CCN(C(=O)c2ccccc2)CC1 [Daporinad] + NC(=O)Nc1cc(-c2cccc(F)c2)sc1C(=O)N[C@H]1CCCNC1 [AZD7762] (partner 0.2 µM)
How it was run: as §1

Cell Line	relative viability (R406 + Luminespib; first compound 0.08 µM)	relative viability (R406 + Luminespib; first compound 0.253 µM)	relative viability (R406 + Luminespib; first compound 0.8 µM)	relative viability (R406 + Luminespib; first compound 2.53 µM)	relative viability (R406 + Luminespib; first compound 8 µM)	relative viability (R406 + Olaparib; first compound 0.08 µM)	relative viability (R406 + Olaparib; first compound 0.253 µM)	relative viability (R406 + Olaparib; first compound 0.8 µM)	relative viability (R406 + Olaparib; first compound 2.53 µM)	relative viability (R406 + Olaparib; first compound 8 µM)	relative viability (Daporinad + Pictilisib; first compound 0.0005 µM)	relative viability (Daporinad + Pictilisib; first compound 0.001581 µM)	relative viability (Daporinad + Pictilisib; first compound 0.005 µM)	relative viability (Daporinad + Pictilisib; first compound 0.01581 µM)	relative viability (Daporinad + AZD7762; first compound 0.0005 µM)	relative viability (Daporinad + AZD7762; first compound 0.001581 µM)	relative viability (Daporinad + AZD7762; first compound 0.005 µM)	relative viability (Daporinad + AZD7762; first compound 0.01581 µM)
201T	1.08	1.06	1.07	1	0.655	0.853	0.867	0.873	0.824	0.515	0.657	0.675	0.682	0.635	0.572	0.673	0.671	0.535
NCI-H1793	0.145	0.148	0.18	0.128	0.136	0.781	0.794	0.946	0.356	0.144	0.221	0.354	0.38	0.32	0.467	0.511	0.522	0.764
NCI-H727	0.351	0.521	0.345		0.323	0.533	0.67	0.666	0.75	0.663	0.359	0.354	0.414	0.284	0.757	0.466	0.513	0.439
HCC-15	0.289	0.518	0.295	0.298	0.465	0.653	0.839	0.675	0.725	0.505	0.664	0.8	0.79	0.856	1.16	1.33	1.26	1.15
ABC-1		0.569	0.27	0.338	0.213	0.77	0.805	0.923	0.501	0.576	0.652	0.934	0.734	0.743	0.83	0.798	0.823	1.1
LCLC-103H	0.843	1.05	1.23	0.701	0.663	0.77	0.888	0.81	0.762	0.302	0.693	0.649	0.619	0.606	0.829	0.829	0.773	0.851
NCI-H460	0.0325	0.0281	0.0243	0.023	0.0248	0.363	0.577	0.441	0.434	0.341	0.332	0.368	0.423	0.535	0.646	0.587	0.64	0.629
EPLC-272H	0.259	0.264	0.337	0.106	0.0888	0.8	0.754	0.707	0.325	0.112	0.295	0.382	0.387	0.436	0.19	0.271	0.268	0.297
